This is an account of results in patent publication US7902248B2, “Oxime glucokinase activators” (Hoffmann-La Roche Inc., priority 2006, dated 2011).

In this test the target is T1, Recombinant human liver GK (GST-GK) (Homo sapiens, UniProt P35557).
T1 construct: made in house; host or cells: E. coli
T1 sequence (P35557 1-466 isoform P35557-2): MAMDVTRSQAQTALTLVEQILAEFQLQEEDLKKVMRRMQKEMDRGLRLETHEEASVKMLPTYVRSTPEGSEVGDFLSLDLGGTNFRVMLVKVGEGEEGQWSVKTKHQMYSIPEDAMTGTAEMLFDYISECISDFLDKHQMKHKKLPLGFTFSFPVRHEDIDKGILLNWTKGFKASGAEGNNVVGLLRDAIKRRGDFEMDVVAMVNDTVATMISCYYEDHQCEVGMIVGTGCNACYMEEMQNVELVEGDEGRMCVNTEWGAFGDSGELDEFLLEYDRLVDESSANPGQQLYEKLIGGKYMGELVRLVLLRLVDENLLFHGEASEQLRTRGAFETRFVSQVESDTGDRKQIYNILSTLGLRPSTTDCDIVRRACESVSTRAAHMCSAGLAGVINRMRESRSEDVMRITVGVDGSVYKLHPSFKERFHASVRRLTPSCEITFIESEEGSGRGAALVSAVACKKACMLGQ
The test is described as follows: In vitro glucokinase activity assay (G6PDH-coupled NADH generation, OD 340 nm). As to conditions: concentration of activator that produced a 50% increase in the activity of GK; 5 mM D-glucose, 25° C.-30° C., pH 7.1. It is filed as biochemical. As to the method:
Glucokinase In Vitro Assay Protocol. Glucokinase (GK) was assayed by coupling the production of glucose-6-phosphate to the generation of NADH with glucose-6-phosphate dehydrogenase (G6PDH, Roche) from Leuconostoc mesenteroides as the coupling enzyme (Scheme 2).
Recombinant human liver GK was expressed in E. coli as a glutathione S-transferase fusion protein (GST-GK) [Liang et al, 1995] and was purified by chromatography over a glutathione-Sepharose 4B affinity column using the procedure provided by the manufacturer (Amersham Pharmacia Biotech, Piscataway, N.J.).
The assay was conducted at 25° C.-30° C. in a flat bottom 96-well tissue culture plate from Costar (Cambridge, Mass.) with a final incubation volume of 120 μL. The incubation reaction contained the following: 25 mM Hepes buffer (pH 7.1), 25 mM KCl, 5 mM D-glucose, 1 mM ATP, 1.8 mM NAD, 2 mM MgCl2, 1 μM sorbitol-6-phosphate, 1 mM dithiothreitol, test drug or 10% DMSO, 1.8 unit/ml G6PDH, and GK (see below). All organic reagents were >98% pure and were from Roche with the exceptions of D-glucose and Hepes which were from Sigma Chemical Co, St Louis, Mo. Test compounds were dissolved in DMSO and were added to the incubation reaction minus GST-GK in a volume of 12 μL to yield a final DMSO concentration of 10%. This mix was pre-incubated in the temperature controlled chamber of a SPECTRAmax 250 microplate spectrophotometer (Molecular Devices Corporation, Sunnyvale, Calif.) for 10 minutes to allow temperature equilibrium and then the reaction was started by the addition of 20 μL GST-GK.
After addition of enzyme, the increase in optical density (OD) at 340 nm was monitored over a 15 minute incubation period as a measure of GK activity. The GK activity in control wells (mOD/min) was compared with the activity in wells containing test GK activators (mOD/min), and the concentration of activator that produced a 50% increase in the activity of GK, i.e., the SC1.5, was calculated.
In the case of `CS(=O)(=O)c1ccc(/C(=N\OC2CCCC2)C(=O)Nc2nc3ccccc3s2)cc1Cl` [Example 14, (E)-N-Benzothiazol-2-yl-2-(3-chloro-4-methanesulfonyl-phenyl)-2-cyclopentyloxyimino-acetamide], the SC1.5 is 0.26 µM.
In the case of `Cc1nsc(NC(=O)/C(=N/OC2CCCCC2)c2ccc(S(C)(=O)=O)c(Cl)c2)n1` [Example 10, (E)-2-(3-Chloro-4-methanesulfonyl-phenyl)-2-cyclohexyloxyimino-N-(3-methyl-[1,2,4]thiadiazol-5-yl)-acetamide] it was 8.4 µM.
Then `CC(C)CO/N=C(/C(=O)Nc1ccn(C)n1)c1ccc(S(C)(=O)=O)c(Cl)c1` [Example 24, (E)-2-(3-Chloro-4-methanesulfonyl-phenyl)-2-isobutoxyimino-N-(1-methyl-1H-pyrazol-3-yl)-acetamide], with 5.3 µM.
In the case of `CC(C)O/N=C(/C(=O)Nc1nc2ccccc2s1)c1ccc(S(C)(=O)=O)c(Cl)c1` [Example 7, (E)-N-Benzothiazol-2-yl-2-(3-chloro-4-methanesulfonyl-phenyl)-2-isopropoxyimino-acetamide] it was 0.79 µM; in that of `CC(C)CO/N=C(/C(=O)Nc1nc2ccccc2s1)c1ccc(S(C)(=O)=O)c(Cl)c1` [Example 25, (E)-N-Benzothiazol-2-yl-2-(3-chloro-4-methanesulfonyl-phenyl)-2-isobutoxyimino-acetamide], 1.6 µM.
Turning to `O=C(Nc1nc2ccccc2s1)/C(=N/OC1CCCC1)c1ccc(Cl)c(Cl)c1` [Example 19, (E)-N-Benzothiazol-2-yl-2-cyclopentyloxyimino-2-(3,4-dichloro-phenyl)-acetamide], the SC1.5 turned out to be 29 µM.
Then `CS(=O)(=O)c1ccc(/C(=N\OC2CCCC2)C(=O)Nc2nc3ccc(Cl)cc3s2)cc1Cl` [Example 23, (E)-N-(6-Chloro-benzothiazol-2-yl)-2-(3-chloro-4-methanesulfonyl-phenyl)-2-cyclopentyloxyimino-acetamide], with 2.8 µM; and `CS(=O)(=O)c1ccc(/C(=N\OC2CCCC2)C(=O)Nc2ccn(Cc3cccnc3)n2)cc1Cl` [Example 31, (E)-2-(3-Chloro-4-methanesulfonyl-phenyl)-2-cyclopentyloxyimino-N-(1-pyridin-3-ylmethyl-1H-pyrazol-3-yl)-acetamide], with 0.35 µM.
On to `CS(=O)(=O)c1ccc(/C(=N\OC2CCCCC2)C(=O)Nc2ncc(C(N)=O)s2)cc1Cl` [Example 12, (E)-2-[2-(3-Chloro-4-methanesulfonyl-phenyl)-2-cyclohexyloxyimino-acetylamino]-thiazole-5-carboxylic acid amide], for which the SC1.5 turned out to be 1.1 µM.
As to `Cn1ccc(NC(=O)/C(=N/OC2CCCCC2)c2ccc(S(C)(=O)=O)c(Cl)c2)n1` [Example 9, (E)-2-(3-Chloro-4-methanesulfonyl-phenyl)-2-cyclohexyloxyimino-N-(1-methyl-1H-pyrazol-3-yl)-acetamide], the SC1.5 stood at 12 µM.
